Assay results as given in patent US20100143385A1, “METHODS FOR REDUCING PHOSPHATE ABSORPTION” (priority 2006, published 2010).

Test system: chicks fed a phytic phosphorous basal diet
Assay: chicken model: chicks fed Pi deficient phytic phosphorous diet with added 1α-hydroxyvitamin D3
Format: in vivo, Single Comb White Leghorn chicks
Excerpt: Animal model: The dietary sources of inorganic phosphate (Pi) are largely mineral phosphates or phosphate from animal tissues and products (milk and eggs). These Pi sources are readily available for absorption by monogastric animals. In diseases where the uptake of phosphorous requires intervention, patients are usually required to avoid these foods and take Pi binders. While this is a useful strategy in reducing the absorption of Pi, patients taking alternative food (e.g., plant based foods) during the treatment of diseases such as end stage renal failure is exposed to another source of phosphate that may serve as a pool of Pi for absorption. Phytic phosphorous (PP) represents 70-80% of all phosphorous in plant based foods. PP is normally unavailable for absorption in monogastric animals when consumed and is excreted with the fecal waste.
Providing 1α-hydroxyvitamin D3 to the chickens fed the Pi deficient diet raised the serum phosphate level. Therefore, this model can be used to test whether anti-phytic acid antibodies would be effective in reducing increased serum phosphate levels from a phytic origin caused by 1α-hydroxyvitamin D3.
Animal experiment: The model used in this study was described by Biehl and Baker, J. Nutr. 1997, 127:2054-2059 with the exception of antibodies to phytic acid. The negative control used in this study was a Pi deficient diet (Pi=inorganic phosphate which are largely mineral phosphates or phosphate from animal tissues and products such as milk and eggs), where the dietary phosphorous used was phytic phosphate. […] The positive control was the same diet as the negative control, but supplemented with 1α-hydroxyvitamin D3 (20 μg/kg diet, Sigma). […] The remaining dietary treatment was the positive control plus the antibody to phytic acid (1 g of dried egg yolk powder produced as described above). The negative and positive controls were fed 1 g/kg diet of dried yolk powder from hens injected with the adjuvant. These egg yolk powders lacked specific antibodies.
A total of 3 treatments were used (negative control, positive control, positive control plus antibody to phytic acid). Six one-day old male Single Comb White Leghorn chicks were assigned to each of the dietary treatments. Chicks were fed the dietary treatments for 10 days, weighed, and blood sampled for determining plasma phosphorous concentration using a Roche/Hitachi analyzer (based on the reaction of phosphate with ammonium molybdate to form ammonium phosphomolybdate without reduction). Excreta (n=1) was collected under each group of 6 chicks for mineral analysis. Chicks were euthanized and the right tibiotarsus of each chick was collected, dried, ether extracted, and ashed for the determination of bone mineral content of fat free, dried bone.
t-Test comparison were used to determine if (1) the addition of 1α-hydroxyvitamin D3 changed the endpoint relative to the negative control diet and (2) the addition of antibody to phytate to the 1α-hydroxyvitamin D3 diet (positive control) reduced the plasma phosphate level. P values are given in the results presented below.

[1] = relative to Pi deficient negative control diet

SMILES: C=C1/C(=C\C=C2/CCC[C@]3(C)[C@@H]([C@H](C)CCCC(C)C)CC[C@@H]23)C[C@@H](O)C[C@@H]1O [1α-hydroxyvitamin D3]
- Plasma Phosphate (chicks, Pi deficient diet, 10 days, 1α-hydroxyvitamin D3 20 μg/kg diet alone, or plus antibody 1 g/kg diet dried egg yolk powder): 6.70 mg/dL
- excreta phosphorous (excreta (n=1) collected under each group of 6 chicks): 0.5%
- decrease of excreta phosphorous [1]: 22%
- increase of bone ash [1]: 8%
- increase of plasma phosphorous [1]: 71%
- bone ash (right tibiotarsus, fat free dried bone, after 10 days of diet): 37.4%
